The test system of the experiment is mice with bleomycin-induced pulmonary fibrosis. The experiment is described as follows: HE staining pathomorphology and inflammatory score of bleomycin-induced pulmonary fibrosis. Format: in vivo, C57BL/6 mice. The settings on record: Table 3 groups, 2 mg/kg i.p., after 28 days, grade 0-5. As to the method:
Male C57BL/6 mice were fasted overnight, then anesthetized with 45 mg/kg sodium pentobarbital by injection intraperitoneally (i.p.), and intratracheally injected with bleomycin at a dose of 3 U/kg. The specific operation steps are as follows: cut the neck skin of the mouse with as little trauma as possible, expose the trachea with the assistance of elbow ophthalmic forceps, puncture the trachea and inject about 50 μL of bleomycin into the trachea with a microsyringe, rotate the mouse quickly and stand it upright for 5 minutes in order to make bleomycin evenly enter the left and right lobe, thereby constructing an animal model. The whole operation was performed at a surgical table at about […]. Mice in the sham operation group were intratracheally injected with an equal amount of physiological saline for injection.
General tissue changes and tissue products can be visualized by HE staining method, namely Hematoxylin and Eosin staining method, which is the most commonly used staining method for morphology. Among them, hematoxylin dyeing solution is an alkaline dyeing solution, which mainly makes the chromatin in the nucleus and the ribosome in the cytoplasm purple blue; eosin is an acid dye, which mainly makes the components in the cytoplasm and extracellular matrix red. Pulmonary fibrosis models were made according to the method described in Example 2 and administered in groups according to Table 3. After 28 days, the right lower lobe of lung tissue of the experimental animals was taken, and fixed with 4% (v/v) paraformaldehyde and embedded in paraffin. Section was performed on the largest cross-section of the paraffin block in which the lung tissue embedded, and basic pathological changes was observed through HE staining. […] The administration of polypeptides S1-S11 can reduce lung inflammation caused by bleomycin, and effectively ameliorate lung injury and restore normal lung structure.
The inflammatory grading was observed according to the results of HE staining, and the criteria were as follows (grade 0-5): grade “0”: normal tissue; grade “1”: extremely small inflammatory changes; grade “2”: mild to moderate inflammatory changes without apparent destruction of lung tissue structure; grade “3”: moderate inflammatory injury (thickening of alveolar diaphragm); grade “4”: moderate to severe inflammatory injury with formation of tissue mass, or the normal structure of lung tissue was destroyed by localized pneumonia area; grade “5”: severe inflammatory injury, severe destruction of the localized lung tissue structure, resulting in closure of lumen.
Pulmonary fibrosis models were made according to the method described in Example 2 and administered in groups according to Table 9. After 28 days, the right lower lobe of lung tissue of the experimental animals was taken, and fixed by 4% (v/v) paraformaldehyde and embedded in paraffin. Section was performed on the largest cross-section of the paraffin block in which the lung tissue embedded, and basic pathological changes was observed through HE staining.

Bridge positions count the residues as written; N and C are the ends. Square brackets hold non-standard residues; d marks the D form. Peptide text beside a SMILES is read from it. S5 = C=CCCC[C@](C)(N)C(=O)O

Compound `CSCC[C@H](NC(=O)[C@H](CC(C)C)NC(=O)[C@@H](N)Cc1c[nH]cn1)C(=O)N[C@@H](C)C(=O)N[C@@H](CS)C(=O)N[C@@H](Cc1ccccc1)C(=O)N[C@H](C(=O)N[C@@]1(C)CCCC=CCCC[C@@](C)(C(=O)N[C@@H](CCCCN)C(=O)N[C@@H](CCCCN)C(=O)N[C@@H](CCCNC(=N)N)C(=O)O)NC(=O)[C@H](CCCCN)NC(=O)[C@H](CCCCN)NC(=O)[C@H](C)NC1=O)[C@@H](C)O` [S8, His-Leu-Met-Ala-Cys-Phe-Thr-S5-Ala-Lys-Lys-S5-Lys-Lys-Arg] (H-HLMACFT[S5]AKK[S5]KKR-OH; staple 8-12; N-terminus and C-terminus assumed) gave an Inflammatory score of 2.833.

(Values after US20210179680A1, “POLYPEPTIDE, DERIVATIVES THEREOF, AND APPLICATION THEREOF IN PREPARATION OF DRUGS HAVING RESISTANCE TO PULMONARY FIBROSIS” (priority 2016, published 2021).)
